# Experimental data as given in PubChem BioAssay (NCI).
#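 Step 1: Grow cells in 96-well plates. Step 2: Expose to compound for 48 hours at 5 concentrations. Step 3: Interpolate endpoints linearly; if unreached, use highest concentration. GI50 marks 50% less growth. TGI is the concentration that stops growth completely.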
# How the values were obtained:
# Experiment in all cases: DTP human tumour cell line panel, 48 h
# SW-620 colon = test system: SW-620 colon
# MDA-MB-435 = test system: MDA-MB-435
# SK-MEL-28 melanoma = test system: SK-MEL-28 melanoma
# SF-539 CNS = test system: SF-539 CNS
# HCT-116 colon = test system: HCT-116 colon
# OVCAR-4 ovarian = test system: OVCAR-4 ovarian
# HL-60(TB) leukemia = test system: HL-60(TB) leukemia
# A498 renal = test system: A498 renal
# KM12 colon = test system: KM12 colon
# NCI-H23 lung = test system: NCI-H23 lung
# OVCAR-5 ovarian = test system: OVCAR-5 ovarian
# NCI-H522 lung = test system: NCI-H522 lung
# SF-295 CNS = test system: SF-295 CNS
# HCT-15 colon = test system: HCT-15 colon
# BT-549 breast = test system: BT-549 breast
# UACC-62 melanoma = test system: UACC-62 melanoma
# HS 578T breast = test system: HS 578T breast
# SK-MEL-2 melanoma = test system: SK-MEL-2 melanoma
# TK-10 renal = test system: TK-10 renal
# DU-145 prostate = test system: DU-145 prostate
# PC-3 prostate = test system: PC-3 prostate
# HCC-2998 colon = test system: HCC-2998 colon
# LOX IMVI melanoma = test system: LOX IMVI melanoma
# 786-0 renal = test system: 786-0 renal
# CCRF-CEM leukemia = test system: CCRF-CEM leukemia
# RPMI-8226 leukemia = test system: RPMI-8226 leukemia
# A549 NSCLC = test system: A549 NSCLC
# OVCAR-3 ovarian = test system: OVCAR-3 ovarian
# NCI/ADR-RES ovarian = test system: NCI/ADR-RES ovarian
# HOP-92 NSCLC = test system: HOP-92 NSCLC
# HOP-62 NSCLC = test system: HOP-62 NSCLC
# MCF7 breast = test system: MCF7 breast
# RXF 393 renal = test system: RXF 393 renal
# UACC-257 melanoma = test system: UACC-257 melanoma
# ACHN renal = test system: ACHN renal
# HT29 colon = test system: HT29 colon
# CAKI-1 renal = test system: CAKI-1 renal
# M14 melanoma = test system: M14 melanoma
# UO-31 renal = test system: UO-31 renal
# OVCAR-8 ovarian = test system: OVCAR-8 ovarian
# SNB-19 CNS = test system: SNB-19 CNS
# U251 CNS = test system: U251 CNS
# SN12C renal = test system: SN12C renal
# SK-MEL-5 melanoma = test system: SK-MEL-5 melanoma
# IGROV1 ovarian = test system: IGROV1 ovarian
# NCI-H460 lung = test system: NCI-H460 lung
# EKVX NSCLC = test system: EKVX NSCLC
# K-562 leukemia = test system: K-562 leukemia
# SR leukemia = test system: SR leukemia
# MOLT-4 leukemia = test system: MOLT-4 leukemia
# NCI-H226 lung = test system: NCI-H226 lung
# COLO 205 colon = test system: COLO 205 colon
# SNB-75 CNS = test system: SNB-75 CNS
# MALME-3M melanoma = test system: MALME-3M melanoma
# MDA-MB-231 breast = test system: MDA-MB-231 breast
# SF-268 CNS = test system: SF-268 CNS
smiles,measurement,setting,value
CN(C)CCCNc1nc2ccccc2c2c(=O)c3cc(F)ccc3sc12,GI50,SW-620 colon,1620 nM
same,TGI,SW-620 colon,3180 nM
same,GI50,MDA-MB-435,1740 nM
same,TGI,MDA-MB-435,3360 nM
same,GI50,SK-MEL-28 melanoma,1760 nM
same,TGI,SK-MEL-28 melanoma,3190 nM
same,GI50,SF-539 CNS,1610 nM
same,TGI,SF-539 CNS,3010 nM
same,GI50,HCT-116 colon,1510 nM
same,TGI,HCT-116 colon,3190 nM
same,GI50,OVCAR-4 ovarian,2000 nM
same,TGI,OVCAR-4 ovarian,4350 nM
same,GI50,HL-60(TB) leukemia,2020 nM
same,TGI,HL-60(TB) leukemia,4140 nM
same,GI50,A498 renal,1810 nM
same,TGI,A498 renal,3680 nM
same,GI50,KM12 colon,1740 nM
same,TGI,KM12 colon,3300 nM
same,GI50,NCI-H23 lung,1670 nM
same,TGI,NCI-H23 lung,3170 nM
same,GI50,OVCAR-5 ovarian,1570 nM
same,TGI,OVCAR-5 ovarian,2950 nM
same,GI50,NCI-H522 lung,1890 nM
same,TGI,NCI-H522 lung,3980 nM
same,GI50,SF-295 CNS,1780 nM
same,TGI,SF-295 CNS,3270 nM
same,GI50,HCT-15 colon,1650 nM
same,TGI,HCT-15 colon,3200 nM
same,GI50,BT-549 breast,10100 nM
same,TGI,BT-549 breast,22900 nM
same,GI50,UACC-62 melanoma,1750 nM
same,TGI,UACC-62 melanoma,3240 nM
same,GI50,HS 578T breast,1660 nM
same,TGI,HS 578T breast,3560 nM
same,GI50,SK-MEL-2 melanoma,2000 nM
same,TGI,SK-MEL-2 melanoma,4070 nM
same,GI50,TK-10 renal,1900 nM
same,TGI,TK-10 renal,3670 nM
same,GI50,DU-145 prostate,1680 nM
same,TGI,DU-145 prostate,3160 nM
same,GI50,PC-3 prostate,1800 nM
same,TGI,PC-3 prostate,3530 nM
same,GI50,HCC-2998 colon,1670 nM
same,TGI,HCC-2998 colon,3240 nM
same,GI50,LOX IMVI melanoma,1630 nM
same,TGI,LOX IMVI melanoma,3050 nM
same,GI50,786-0 renal,1470 nM
same,TGI,786-0 renal,3020 nM
same,GI50,CCRF-CEM leukemia,2230 nM
same,TGI,CCRF-CEM leukemia,5310 nM
same,GI50,RPMI-8226 leukemia,2320 nM
same,TGI,RPMI-8226 leukemia,5370 nM
same,GI50,A549 NSCLC,2040 nM
same,TGI,A549 NSCLC,4810 nM
same,GI50,OVCAR-3 ovarian,1670 nM
same,TGI,OVCAR-3 ovarian,3170 nM
same,GI50,NCI/ADR-RES ovarian,1620 nM
same,TGI,NCI/ADR-RES ovarian,3180 nM
same,GI50,HOP-92 NSCLC,1170 nM
same,TGI,HOP-92 NSCLC,3960 nM
same,GI50,HOP-62 NSCLC,1980 nM
same,TGI,HOP-62 NSCLC,4200 nM
same,GI50,MCF7 breast,1130 nM
same,TGI,MCF7 breast,2660 nM
same,GI50,RXF 393 renal,1460 nM
same,TGI,RXF 393 renal,2910 nM
same,GI50,UACC-257 melanoma,2080 nM
same,TGI,UACC-257 melanoma,4210 nM
same,GI50,ACHN renal,1560 nM
same,TGI,ACHN renal,2920 nM
same,GI50,HT29 colon,1700 nM
same,TGI,HT29 colon,3710 nM
same,GI50,CAKI-1 renal,1580 nM
same,TGI,CAKI-1 renal,2940 nM
same,GI50,M14 melanoma,1980 nM
same,TGI,M14 melanoma,3750 nM
same,GI50,UO-31 renal,1480 nM
same,TGI,UO-31 renal,2830 nM
same,GI50,OVCAR-8 ovarian,2090 nM
same,TGI,OVCAR-8 ovarian,4910 nM
same,GI50,SNB-19 CNS,1650 nM
same,TGI,SNB-19 CNS,3080 nM
same,GI50,U251 CNS,1900 nM
same,TGI,U251 CNS,4410 nM
same,GI50,SN12C renal,1610 nM
same,TGI,SN12C renal,3150 nM
same,GI50,SK-MEL-5 melanoma,1700 nM
same,TGI,SK-MEL-5 melanoma,3120 nM
same,GI50,IGROV1 ovarian,1470 nM
same,TGI,IGROV1 ovarian,2940 nM
same,GI50,NCI-H460 lung,1760 nM
same,TGI,NCI-H460 lung,3440 nM
same,GI50,EKVX NSCLC,1590 nM
same,TGI,EKVX NSCLC,3240 nM
same,GI50,K-562 leukemia,2330 nM
same,TGI,K-562 leukemia,8350 nM
same,GI50,SR leukemia,4010 nM
same,TGI,SR leukemia,> 100000 nM
same,GI50,MOLT-4 leukemia,2130 nM
same,TGI,MOLT-4 leukemia,4480 nM
same,GI50,NCI-H226 lung,1710 nM
same,TGI,NCI-H226 lung,3340 nM
same,GI50,COLO 205 colon,2120 nM
same,TGI,COLO 205 colon,5030 nM
same,GI50,SNB-75 CNS,1330 nM
same,TGI,SNB-75 CNS,2750 nM
same,GI50,MALME-3M melanoma,1620 nM
same,TGI,MALME-3M melanoma,3050 nM
same,GI50,MDA-MB-231 breast,1370 nM
same,TGI,MDA-MB-231 breast,2750 nM
same,GI50,SF-268 CNS,1530 nM
same,TGI,SF-268 CNS,3160 nM
